# According to patent publication US11034725B2, “Compositions and methods for treating cardiovascular disease” (Genentech, Inc., priority 2016, dated 2021):
# Entries after “also recorded” stand apart in the source; their conditions may differ. Bridge positions count the residues as written; N and C are the ends. Square brackets hold non-standard residues; d marks the D form. Ends that are not written are not given here. Peptide text beside a SMILES is read from it. * marks the point of attachment. hArg = N=C(N)NCCCC[C@H](N)C(=O)O; Pentanoyl = CCCCC(=O)*
# Key:
# [1] = target: T1, PCSK9 (Homo sapiens, UniProt Q8NBP7); experiment: PCSK9/EGF(A) TR-FRET binding assay; conditions: TR-FRET, read-out: PCSK9/EGF(A) IC50
# [2] = target: T2, PCSK9Δhelix (Homo sapiens, UniProt Q8NBP7); experiment: PCSK9Δhelix/Ab20 TR-FRET binding assay
# T2 construct: Human PCSK9 construct M1-Q692 with an engineered TEV site (residue deletion Y166, R167); made in house; host or cells: CHO
# [3] = test system: His-EGF(A)-Fc; experiment: His-EGF(A)-Fc TR-FRET counterscreen
# [4] = target: T3, PCSK9-R167A:R215A:R218A (PCSK9-AAA) (Homo sapiens, UniProt Q8NBP7, R167A/R215A/R218A); experiment: FXIa cleavage assay of the P′ helix of PCSK9-AAA; assay type: biochemical; conditions: immunoblot with anti-N-terminal peptide antibody
# T3 construct: made in house; host or cells: CHO (transient)
# Method: The PCSK9-AAA mutant (2.6 μM) was incubated with 50 nM FXIa (Haematologic Technologies) in Tris buffer (50 mM Tris, 150 mM NaCl, 4 mM CaCl2, pH 8.0) at room temperature for the indicated time periods. […] After SDS-PAGE of the samples, proteins were transferred to a nitrocellulose membrane using iBlot (Invitrogen). Proteins were then probed with a polyclonal rabbit antibody (1:3000) raised against the PCSK9 N-terminal peptide (^153[…]^168 (SEQ ID NO: 5)), followed with HRP-conjugated donkey anti-rabbit antibody (1:5000, GE Healthcare) using iBind (Invitrogen). PCSK9 signals were detected by ECL (GE Healthcare) and visualized by autoradiography.
# Proteins were then probed with a polyclonal rabbit antibody (1:3000) raised against the PCSK9 N-terminal peptide (^153[…]^168 (SEQ ID NO: 5)), followed with HRP-conjugated donkey anti-rabbit antibody (1:5000, GE Healthcare) using iBind (Invitrogen). PCSK9 signals were detected by ECL (GE Healthcare) and visualized by autoradiography.
# [5] = target: T4, FXIa (Homo sapiens, UniProt P03951); experiment: LC-MS determination of FXIa-mediated cleavage of groove-binding peptides; assay type: in vitro ADME
# T4 construct: purchased Haematologic Technologies
# Method: Peptide cleavage was determined by using the calculated molecular weights and by measuring the area under the curves.
# [6] = target: T1, PCSK9; experiment: Surface plasmon resonance biosensor-based affinity analysis (Example 4); assay type: binding; conditions: for Kd: Table 7, Target PCSK9, SPR at 20° C.
# [7] = target: T2, PCSK9Δhelix; experiment: as above; assay type: binding
# [8] = target: T2, PCSK9Δhelix; experiment: SPR affinity measurements of peptide binding (Example 8); conditions: Table 10, binding to PCSK9Δhelix
# Method: A Biacore™ T100 or Biacore™ 8K was adjusted to 20° C. The system was primed into assay buffer which consisted of 25 mM HEPES, pH 7.5, 0.15 M NaCl, 0.005% (v/v) Tween® 20, 0.2 mM tris(2-carboxyethyl)phosphine and optionally contained 0.1% (w/v) carboxymethylated dextran (average MW 10 kDa) and 0.2% (w/v) PEG (average MW 3450 Da) in order to reduce potential non-specific binding. Peptides were assayed by capturing fresh PCSK9 or PCSK9Δhelix after each binding regeneration cycle by exploiting a histidine tag and an NTA-sensor chip. The surface was charged with (His)8-tagged PCSK9 (approximately 800 RU captured). […] Compound 19 and Compound 20 were assayed in six serial two-fold dilutions from 100 nM to 3.1 nM. All peptides were analyzed in duplicate by serial injection (50 μL/min for 1 min) of peptide dilution from low to high concentration. The surface was then stripped of target by injecting 0.5 M EDTA, pH 8.0. This sequence was repeated for each peptide binding cycle and blank control cycles.
# All SPR data was recorded in duplicate for five, or more serial dilutions, except for the two fusion peptides, which produced extremely low fitting error. Multicycle data (i.e. separate curves for each concentration) and single cycle data (i.e. single curve with serial injection of each concentration) were double referenced and fitted to an interaction model using BIAevaluation software. Peptide binding to PCSK9 produced deviations from a simple 1:1 binding interaction model that required application of a two-state model for determination of Kd while interactions with PCSK9Δhelix conformed well to simple 1:1 binding. Kinetic curvature was poorly defined for rapidly dissociating peptides and in these cases Kd was estimated from a steady-state dose response plot. Kd values were reported with associated standard error, a measure of confidence in that parameter value.
# [9] = target: T1, PCSK9; experiment: Phage competition ELISA; assay type: binding
# Method: The sequences of selected clones were fused to the N-terminus of M13 major coat protein (p8) using Kunkel mutagenesis method (Kunkel et al., Methods Enzymol 154, 367-82). The resulting construct was transformed to E. Coli. XL1 blue, single colony was grown in 1 mL 2YT supplemented with 50 μg/mL carbenicillin, 10 μg/mL Tetracycline and M13 KO7 helper phage at 37° C. for 2 h, Kanamycin was added to final concentration of 25 μg/mL, growth was continued at 37° C. for 6 h. The culture was transferred to 30 mL 2YT supplemented with 50 μg/mL carbenicillin and 25 μg/mL kanamycin and grown at 37° C. overnight. The next day, the phage was harvested and purified using the standard protocol (Tonikian et al. Nat Protoc. 2007; 2(6):1368-86). The serially diluted phage solution was applied to the biotinylated PCSK9 and biotinylated PCSK9Δhelix that had been immobilized for 15 min on a 384-well MaxiSorp ImmunoPlate previously coated with 5 μg/mL NeutrAvidin and blocked with Block buffer. The plate was incubated at 4° C. for 1 h, washed 10 times with PT buffer (PBS, 0.05% Tween® 20). The bound phage was detected with anti-M13-HRP and the ELISA signal was read at OD450 nm. The background was ELISA signal that the phage directly bound to NeutrAvidin-coated plate. The data was plotted and the curve fitted with KaleidaGraph. Sub-saturating phage concentration that gave 80% of maximum binding signal was determined by the binding curve.
# IC50 measurements were performed by mixing a fixed sub-saturating concentration of peptide-displaying phage with a serial dilution of synthetic peptides in PBT buffer. The mixture was added to plates coated with PCSK9 and PCSK9Δhelix and incubated for 1 h at room temperature. The plates were then washed 10 times with PBT buffer and the bound phage was detected by anti-M13-HRP. The data was plotted, curve fitted and IC50 derived by use of KaleidaGraph. All measurements were repeated 3 times independently.
# [10] = target: T1, PCSK9; experiment: PCSK9 | IC50(uM)
# Source text: Where the first naming reader finds the target: head: PCSK9 | IC50(uM)
# [11] = target: T2, PCSK9Δhelix; experiment: PCSK9Δhelix | IC50(uM)
# Source text: Where the first naming reader finds the target: head: PCSK9Δhelix | IC50(uM)
# [12] = Table 7, Target PCSK9Δhelix, SPR at 20° C., read-out: Kd
# [13] = TR-FRET, Example 7, read-out: PCSK9Δhelix/Ab20 IC50
# [14] = Example 4, read-out: Kd for PCSK9Δhelix
# [15] = Table 8D, disulfide-cyclized extension peptides
# [16] = TR-FRET, Table 8D, disulfide-cyclized extension peptides, read-out: PCSK9Δhelix/Ab20 IC50
# [17] = TR-FRET counterscreen, Table 8D, * = some inhibition at highest concentrations, not sufficient to fit an IC50
molecule,measurement,setting,value
"CCCCC(=O)N[C@@H](Cc1c[nH]c2ccccc12)C(=O)N[C@@H](CC(N)=O)C(=O)N[C@@H](CC(C)C)C(=O)N[C@H](C(=O)N[C@@H](CCCCNC(=N)N)C(=O)N[C@H](C(=O)NCC(=O)N[C@@H](CC(C)C)C(=O)N[C@H](C(=O)N[C@@H](CCCNC(=N)N)C(N)=O)[C@@H](C)O)[C@@H](C)CC)C(C)C [Compound 118, n-BuC(O)-WNLV(homoR)IGLTR-NH2] (Pentanoyl-WNLV[hArg]IGLTR-NH2)",IC50,[1]; Example 7,> 50 µM
same,increase of inhibition in PCSK9Δhelix/Ab20 assay by homo-arginine replacement,[2]; versus Compound 112,5 fold
same,IC50,"[3]; counterscreen, Example 7",> 50 µM
same,effect on FXIa-mediated cleavage of the P′ helix of PCSK9-AAA,[4],higher degree; also recorded: able to increase the FXIa-mediated cleavage; also recorded: stronger effect
same,peptide cleavage by FXIa,[5]; up to 6 h,remained intact; also recorded: No cleavage
Ac-PWNLVRIGLLR-NH2 [Compound 52],Kd,[6],17.9 µM
same,Kd,[7]; [12],2.6 µM
same,IC50,[1]; Example 7,> 50 µM
same,IC50,[2]; [13],10.2 µM
same,IC50,"[2]; Table 10, average ±S.D. of three experiments, read-out: Ab20 IC50",15.9 ± 1.1 µM
same,IC50,"[3]; counterscreen, Example 7",> 50 µM
same,Kd,[8],2.1 µM
SGDLMPWNLVRIGLLR-NH2 [Compound K9gvpep7],competition with binding of phage-displayed Pep2-8 to PCSK9,[9],did not compete
same,IC50,[10],0.635 ± 0.107 µM
same,IC50,[11],0.914 ± 0.0283 µM
CC[C@H](C)[C@@H]1NC(=O)[C@H](CCCNC(=N)N)NC(=O)[C@H](CCC(N)=O)NC(=O)[C@H](CC(C)C)NC(=O)[C@H](CC(N)=O)NC(=O)[C@H](Cc2c[nH]c3ccccc23)NC(=O)[C@@H]2CCCN2C(=O)[C@H](CC(C)C)NC(=O)[C@H](CCCNC(=N)N)NC(=O)[C@@H](NC(C)=O)CSSC[C@@H](C(N)=O)NC(=O)[C@@H]2CCCN2C(=O)[C@H](CC(C)C)NC(=O)CNC1=O [Compound 32] (Ac-CRLPWNLQRIGLPC-NH2; disulfide 1-14),Kd,[6],1.3 µM
same,Kd,[7]; [14],0.21 µM
same,IC50,[1]; [15],> 50 µM
same,IC50,[2]; [13],~1 µM
same,IC50,[2]; [16],0.97 µM
same,IC50,[3]; [17],> 50 µM
CC[C@H](C)[C@@H]1NC(=O)[C@H](CCCNC(=N)N)NC(=O)[C@H](C)NC(=O)[C@H](CC(C)C)NC(=O)[C@H](CC(N)=O)NC(=O)[C@H](Cc2c[nH]c3ccccc23)NC(=O)[C@@H]2CCCN2C(=O)[C@H](CC(C)C)NC(=O)[C@H](CCCNC(=N)N)NC(=O)[C@@H](NC(C)=O)CSSC[C@@H](C(N)=O)NC(=O)[C@@H]2CCCN2C(=O)[C@H](CC(C)C)NC(=O)CNC1=O [Compound 73] (Ac-CRLPWNLARIGLPC-NH2; disulfide 1-14),Kd,[6],11 µM
same,Kd,[7]; [14],0.167 µM
same,IC50,[1]; [15],> 50 µM
same,IC50,[2]; [16],0.915 µM
same,IC50,[3]; [17],> 50 µM
SGGSMPWNLERIFALH-NH2 [Compound K9gvpep8],competition with binding of phage-displayed Pep2-8 to PCSK9,[9],did not compete
same,IC50,[10],1.7 ± 0.166 µM
same,IC50,[11],2.15 ± 0.215 µM
"CC(=O)N[C@H](C(=O)N[C@H](C(=O)N[C@@H](Cc1ccccc1)C(=O)N[C@H](C(=O)N[C@@H](CO)C(=O)N[C@@H](Cc1c[nH]c2cc(F)ccc12)C(=O)N[C@@H](CCC(=O)O)C(=O)N[C@@H](CCC(=O)O)C(=O)N[C@@H](Cc1ccc(O)cc1)C(=O)N[C@@H](CC(C)C)C(=O)N[C@@H](CC(=O)O)C(=O)N[C@@H](Cc1c[nH]c2ccccc12)C(=O)N[C@H](C(N)=O)C(C)C)[C@@H](C)O)C(C)C)[C@@H](C)O [Compound 3, Ac-TVFTS(W6fl)EEYLDWV-NH2]",improvement of binding to PCSK9 relative to Pep2-8,[6]; Table 7,about 3 fold
same,Kd,[6],1.4 µM
same,Kd,[7]; [12],2.58 µM
CC[C@H](C)[C@@H]1NC(=O)[C@H](CCCNC(=N)N)NC(=O)[C@H](CCC(N)=O)NC(=O)[C@H](CC(C)C)NC(=O)[C@H](CC(N)=O)NC(=O)[C@H](Cc2c[nH]c3ccccc23)NC(=O)[C@@H]2CCCN2C(=O)[C@H]([C@@H](C)CC)NC(=O)[C@H](Cc2ccccc2)NC(=O)[C@@H](NC(=O)CNC(=O)[C@@H](N)CO)CSSC[C@@H](C(N)=O)NC(=O)[C@H](CC(C)C)NC(=O)[C@H](CC(C)C)NC(=O)CNC1=O [Compound 26] (H-SGCFIPWNLQRIGLLC-NH2; disulfide 3-16),Kd,[6],29 µM
same,Kd,[7]; [12],0.803 µM
same,effect on FXIa-mediated cleavage of the P′ helix of PCSK9-AAA,[4],accelerated the cleavage reaction; also recorded: able to increase the FXIa-mediated cleavage; also recorded: strongly accelerated the cleavage
CCCCC(=O)N[C@@H](Cc1c[nH]c2ccccc12)C(=O)N[C@@H](CC(N)=O)C(=O)N[C@@H](CC(C)C)C(=O)N[C@H](C(=O)N[C@@H](CCCNC(=N)N)C(=O)N[C@H](C(=O)NCC(=O)N[C@@H](CC(C)C)C(=O)N[C@H](C(=O)N[C@@H](CCCNC(=N)N)C(N)=O)[C@@H](C)O)[C@@H](C)CC)C(C)C [Compound 112] (Pentanoyl-WNLVRIGLTR-NH2),IC50,[1]; Example 7,> 50 µM
same,IC50,[2]; [13],7.5 µM
same,IC50,"[3]; counterscreen, Example 7",> 50 µM
same,effect on FXIa-mediated cleavage of the P′ helix of PCSK9-AAA,[4],able to increase the FXIa-mediated cleavage
same,peptide cleaved by FXIa,"[5]; 1 h, with K9-AAA and 50 nM FXIa",34%
same,peptide cleaved by FXIa,"[5]; 6 h, with K9-AAA and 50 nM FXIa",76%
same,metabolised at 1 h,"[5]; isolated protease FXIa (50 nM) with K9-AAA, 1 h, with K9-AAA and 50 nM FXIa, read-out: peptide cleaved by FXIa",34%
same,metabolised at 6 h,"[5]; isolated protease FXIa (50 nM) with K9-AAA, 6 h, with K9-AAA and 50 nM FXIa, read-out: peptide cleaved by FXIa",76%
